In patent US11939314B2, “Quinolin-2-one derivatives” (MERCK PATENT GMBH, priority 2016, dated 2024):

Experiments:
c-Kit(V654A) = target: T1, c-Kit(V654A) (Homo sapiens, UniProt P10721, V654A); experiment: c-Kit(V654A) assay; type: biochemical; conditions: recombinant human c-Kit aa 544-end, 200 μM ATP, 1.4E-06 means 1.4×10^−6, read-out: Inhibition (IC50) of c-KIT (V654A)
T1 construct: amino acids 544-end containing the V654A mutation; GST (N)
Procedure: (§1) c-Kit(V654A) (N-terminal GST-tagged, recombinant human c-Kit, amino acids 544-end containing the V654A mutation) is incubated with 8 mM MOPS pH 7.0, 0.2 mM EDTA, 250 μM GGMEDIYEFMGGKKK, 10 mM MgAcetate and [gamma-33P-ATP] (specific activity approx. 500 cpm/pmol, concentration 200 μM). The reaction is initiated by the addition of the MgATP mix. After incubation for 40 minutes at room temperature, the reaction is stopped by the addition of 3% phosphoric acid solution. 10 μL of the reaction is then spotted onto a P30 filtermat and washed three times for 5 minutes in 75 mM phosphoric acid and once in methanol prior to drying and scintillation counting.

PDGFRalpha(V561D) = target: T2, PDGFRalpha(V561D) (Homo sapiens, UniProt P16234, V561D); experiment: PDGFRalpha(V561D) assay; type: biochemical; conditions: recombinant human PDGFRalpha aa 550-end, 200 μM ATP, 1.4E-06 means 1.4×10^−6, read-out: Inhibition (IC50) of PDGFRα (V561D)
T2 construct: recombinant human PDGFRalpha, amino acids 550end containing the V561 D mutation; 6His (N)
Procedure: as §1, with “PDGFRalpha(V561D)” for “c-Kit(V654A)”, “6His-tagged,” for “GST-tagged,”, “PDGFRalpha,” for “c-Kit,”, “550end” for “544-end”, “V561 D” for “V654A”

T2 sequence (P16234 550-1089 V561D): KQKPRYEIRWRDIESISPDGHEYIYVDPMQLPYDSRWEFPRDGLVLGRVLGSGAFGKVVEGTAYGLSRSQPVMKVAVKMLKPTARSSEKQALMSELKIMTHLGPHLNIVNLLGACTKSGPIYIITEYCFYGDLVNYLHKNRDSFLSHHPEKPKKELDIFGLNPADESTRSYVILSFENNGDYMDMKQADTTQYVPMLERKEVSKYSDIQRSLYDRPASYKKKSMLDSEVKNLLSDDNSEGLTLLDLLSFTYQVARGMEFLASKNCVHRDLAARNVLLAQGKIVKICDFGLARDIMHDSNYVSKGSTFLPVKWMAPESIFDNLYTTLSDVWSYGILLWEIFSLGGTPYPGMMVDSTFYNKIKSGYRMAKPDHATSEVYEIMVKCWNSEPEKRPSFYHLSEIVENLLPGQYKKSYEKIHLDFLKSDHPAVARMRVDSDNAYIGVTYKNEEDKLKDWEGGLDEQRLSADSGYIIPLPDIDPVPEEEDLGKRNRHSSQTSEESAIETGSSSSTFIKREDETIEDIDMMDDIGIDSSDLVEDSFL
T1 sequence (P10721 544-976 V654A): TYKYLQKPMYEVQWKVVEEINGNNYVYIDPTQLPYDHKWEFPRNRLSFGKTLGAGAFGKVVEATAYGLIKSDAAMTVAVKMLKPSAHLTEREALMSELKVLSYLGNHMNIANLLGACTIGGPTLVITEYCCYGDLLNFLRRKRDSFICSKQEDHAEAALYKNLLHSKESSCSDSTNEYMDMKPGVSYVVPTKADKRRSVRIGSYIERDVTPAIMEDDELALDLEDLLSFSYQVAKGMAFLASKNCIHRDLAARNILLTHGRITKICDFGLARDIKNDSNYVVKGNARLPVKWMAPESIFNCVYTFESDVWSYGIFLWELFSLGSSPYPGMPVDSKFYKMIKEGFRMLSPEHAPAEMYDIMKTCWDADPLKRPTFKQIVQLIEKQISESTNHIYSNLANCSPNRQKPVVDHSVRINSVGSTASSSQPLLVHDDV

Row | Structure (SMILES) | IC50 (c-Kit(V654A)) [nM] | IC50 (PDGFRalpha(V561D)) [nM]
1 | O=C(c1ccc(-n2cc(-c3cc4cc(F)ccc4[nH]c3=O)nn2)cc1)N1CCOC2(COC2)C1 [A231, 3-{1-[4-(2,5-dioxa-8-aza-spiro[3.5]nonane-8-carbonyl)-phenyl]-1H-[1,2,3]triazol-4-yl}-6-fluoro-1H-quinolin-2-one] | 90 | 340
2 | O=C(Cn1ccc2cc(-n3cc(-c4cc5cc(F)c(F)cc5[nH]c4=O)nn3)ccc21)N1CCNCC1 [A139, 6,7-difluoro-3-{1-[1-(2-oxo-2-piperazin-1-yl-ethyl)-1H-indol-5-yl]-1H-[1,2,3]triazol-4-yl}-1H-quinolin-2-one] | 12 | 3800
3 | CO[C@@H]1CN(C(=O)c2ccc(-n3cc(-c4cc5cc(F)ccc5[nH]c4=O)nn3)cc2)C[C@H]1OC [A263, 3-{1-[4-((3R,4R)-3,4-dimethoxy-pyrrolidine-1-carbonyl)-phenyl]-1H-[1,2,3]triazol-4-yl}-6-fluoro-1H-quinolin-2-one] | 94 | 0.91
4 | CO[C@@H]1C[C@H](CO)N(C(=O)c2ccc(-n3cc(-c4cc5cc(Cl)ccc5[nH]c4=O)nn3)cc2)C1 [A247, 6-chloro-3-{1-[4-((2R,4R)-2-hydroxymethyl-4-methoxy-pyrrolidine-1-carbonyl)-phenyl]-1H-[1,2,3]triazol-4-yl}-1H-quinolin-2-one] | 23 | 45
5 | O=c1[nH]c2ccccc2cc1-c1cn(-c2ccc(F)cc2)nn1 [A12, 3-[1-(4-fluoro-phenyl)-1H-[1,2,3]triazol-4-yl]-1H-quinolin-2-one] | 69 | 63
6 | CN(C)C[C@@H]1CCN(C(=O)c2ccc(-n3cc(-c4cc5cc(F)ccc5[nH]c4=O)nn3)cc2)C1 [A326, 3-{1-[4-((S)-3-dimethylaminomethyl-pyrrolidine-1-carbonyl)-phenyl]-1H-[1,2,3]triazol-4-yl}-6-fluoro-1H-quinolin-2-one] | 180 | 940
7 | COC[C@H]1CCN(C(=O)c2ccc(-n3cc(-c4cc5cc(F)ccc5[nH]c4=O)nn3)cc2)C1 [A202, 6-fluoro-3-{1-[4-((S)-3-methoxymethyl-pyrrolidine-1-carbonyl)-phenyl]-1H-[1,2,3]triazol-4-yl}-1H-quinolin-2-one] | 57 | 16
8 | NC1CCN(C(=O)c2ccc(-n3cc(-c4cc5cc(F)ccc5[nH]c4=O)nn3)cc2)CC1 [A144, 3-{1-[4-(4-amino-piperidine-1-carbonyl)-phenyl]-1H-[1,2,3]triazol-4-yl}-6-fluoro-1H-quinolin-2-one] | 12 | 170
9 | CN1CCN(c2ccc(-n3cc(-c4cc5ccccc5[nH]c4=O)nn3)cc2)C(=O)C1 [A68, 3-{1-[4-(4-methyl-2-oxo-piperazin-1-yl)-phenyl]-1H-[1,2,3]triazol-4-yl}-1H-quinolin-2-one] | 28 | 7
10 | CCN(CC)CCNC(=O)c1ccc(-n2cc(-c3cc4cc(F)c(F)cc4[nH]c3=O)nn2)cc1 [A187, N-(2-diethylamino-ethyl)-4-[4-(6,7-difluoro-2-oxo-1,2-dihydro-quinolin-3-yl)-[1,2,3]triazol-1-yl]-benzamide] | 36 | 76
11 | COCC1CCN(C(=O)c2ccc(-n3cc(-c4cc5cc(F)c(F)cc5[nH]c4=O)nn3)cc2)C1 (stereo not drawn) [A109, 6,7-difluoro-3-{1-[4-(3-methoxymethyl-pyrrolidine-1-carbonyl)-phenyl]-1H-[1,2,3]triazol-4-yl}-1H-quinolin-2-one] | 12 | 3.4
12 | CN1CCN(C(=O)c2ccc(-n3cc(-c4cc5cc(F)ccc5[nH]c4=O)nn3)cc2)CC1 [A56, 6-fluoro-3-{1-[4-(4-methyl-piperazine-1-carbonyl)-phenyl]-1H-[1,2,3]triazol-4-yl}-1H-quinolin-2-one] | 7 | 5
13 | O=c1[nH]c2ccc(F)cc2cc1-c1cn(-c2ccc(OCCCN3CCNCC3)cc2)nn1 [A131, 6-fluoro-3-{1-[4-(3-piperazin-1-yl-propoxy)-phenyl]-1H-[1,2,3]triazol-4-yl}-1H-quinolin-2-one] | 9.7 | 38
14 | CN1CCN(C(=O)c2ccc(-n3cc(-c4cc5c(F)cc(F)cc5[nH]c4=O)nn3)cc2)CC1 [A152, 5,7-difluoro-3-{1-[4-(4-methyl-piperazine-1-carbonyl)-phenyl]-1H-[1,2,3]triazol-4-yl}-1H-quinolin-2-one] | 11 | 23
15 | O=C(c1ccc(-n2cc(-c3cc4cc(Cl)ccc4[nH]c3=O)nn2)cc1)N1CC2(COC2)C1 [A258, 6-chloro-3-{1-[4-(2-oxa-6-aza-spiro[3.3]heptane-6-carbonyl)-phenyl]-1H-[1,2,3]triazol-4-yl}-1H-quinolin-2-one] | 47 | 86
16 | COC[C@H]1CCN(C(=O)c2ccc(-n3cc(-c4cc5cc(F)c(F)cc5[nH]c4=O)nn3)cc2)C1 [A201, 6,7-difluoro-3-{1-[4-((S)-3-methoxymethyl-pyrrolidine-1-carbonyl)-phenyl]-1H-[1,2,3]triazol-4-yl}-1H-quinolin-2-one] | 97 | 92
17 | CC(C)(O)c1ccc(-n2cc(-c3cc4ccccc4[nH]c3=O)nn2)cc1 [A36, 3-{1-[4-(1-hydroxy-1-methyl-ethyl)-phenyl]-1H-[1,2,3]triazol-4-yl}-1H-quinolin-2-one] | 29 | 17
18 | O=C(c1ccc(-n2cc(-c3cc4cc(F)ccc4[nH]c3=O)nn2)cc1)N1CCC[C@@H]1CN1CCCC1 [A278, 6-fluoro-3-{1-[4-((R)-2-pyrrolidin-1-ylmethyl-pyrrolidine-1-carbonyl)-phenyl]-1H-[1,2,3]triazol-4-yl}-1H-quinolin-2-one] | 17 | 1.5
19 | CO[C@H]1CCN(C(=O)c2ccc(-n3cc(-c4cc5cc(F)ccc5[nH]c4=O)cn3)cc2)C1 [A297, 6-fluoro-3-{1-[4-((S)-3-methoxy-pyrrolidine-1-carbonyl)-phenyl]-1H-pyrazol-4-yl}-1H-quinolin-2-one] | 66 | 240
20 | O=C(c1ccc(-n2cc(-c3cc4ccccc4[nH]c3=O)cn2)cc1)N1CCNCC1 [A73, 3-{1-[4-(piperazine-1-carbonyl)-phenyl]-1H-pyrazol-4-yl}-1H-quinolin-2-one] | – | 440
21 | CN1C[C@@H]2CN(C(=O)c3ccc(-n4cc(-c5cc6cc(F)ccc6[nH]c5=O)nn4)cc3)C[C@@H]2C1 [A327, 6-fluoro-3-{1-[4-((cis)-5-methyl-hexahydro-pyrrolo[3,4-c]pyrrole-2-carbonyl)-phenyl]-1H-[1,2,3]triazol-4-yl}-1H-quinolin-2-one] | 14 | 220
22 | O=C(c1ccc(-n2cc(-c3cc4cc(F)ccc4[nH]c3=O)nn2)cc1)N1C[C@H](O)CO1 [A276, 6-fluoro-3-{1-[4-((S)-4-hydroxy-isoxazolidine-2-carbonyl)-phenyl]-1H-[1,2,3]triazol-4-yl}-1H-quinolin-2-one] | 54 | 1.4
23 | O=C(c1ccc(-n2cc(-c3cc4cc(F)ccc4[nH]c3=O)nn2)cc1)N1CCC2(COC2)C1 [A205, 6-fluoro-3-{1-[4-(2-oxa-6-aza-spiro[3.4]octane-6-carbonyl)-phenyl]-1H-[1,2,3]triazol-4-yl}-1H-quinolin-2-one] | 36 | 94
24 | COC[C@@H]1CCN(C(=O)c2ccc(-n3cc(-c4cc5cc(F)ccc5[nH]c4=O)nn3)cc2)C1 [A199, 6-fluoro-3-{1-[4-((R)-3-methoxymethyl-pyrrolidine-1-carbonyl)-phenyl]-1H-[1,2,3]triazol-4-yl}-1H-quinolin-2-one] | 16 | 22
25 | COCCO[C@@H]1CCN(C(=O)c2ccc(-n3cc(-c4cc5cc(F)ccc5[nH]c4=O)nn3)cc2)C1 [A252, 6-fluoro-3-(1-{4-[(R)-3-(2-methoxy-ethoxy)-pyrrolidine-1-carbonyl]-phenyl}-1H-[1,2,3]triazol-4-yl)-1H-quinolin-2-one] | 98 | 93
26 | O=C(c1ccc(-n2cc(-c3cc4cc(F)ccc4[nH]c3=O)nn2)cc1)N1CCCC(O)C1 (stereo not drawn) [A184, 6-fluoro-3-{1-[4-(3-hydroxy-piperidine-1-carbonyl)-phenyl]-1H-[1,2,3]triazol-4-yl}-1H-quinolin-2-one] | 18 | 11
27 | COc1cnc2[nH]c(=O)c(-c3cn(-c4ccc(C(=O)N(C)C)cc4)nn3)cc2c1 [A16, 4-[4-(6-methoxy-2-oxo-1,2-dihydro-[1,8]naphthyridin-3-yl)-[1,2,3]triazol-1-yl]-N,N-dimethyl-benzamide] | – | 33
28 | O=c1[nH]c2ccccc2cc1-c1cn(-c2ccccc2F)nn1 [A13, 3-[1-(2-fluoro-phenyl)-1H-[1,2,3]triazol-4-yl]-1H-quinolin-2-one] | – | 500
29 | COC(=O)c1cccc(-n2cc(-c3cc4ccccc4[nH]c3=O)nn2)c1 [A23, 3-[4-(2-oxo-1,2-dihydro-quinolin-3-yl)-[1,2,3]triazol-1-yl]-benzoic acid methyl ester] | – | 250
